This is an account of results in ChEMBL document CHEMBL1136921, “Benzylguanidines and other galegine analogues inducing weight loss in mice” (J Med Chem, 2009).

Data set [1] concerns Mus musculus. The data set is described as follows: Antiobesity activity in lean normal BALB/c mouse assessed as change in average daily food intake at 0.59 mmol/kg/day administered through diet for 7 days relative to time-matched control. The data set is classed as functional.
The subject of data set [2] is Mus musculus. Description: Hypoglycemic activity in lean normal BALB/c mouse assessed as blood glucose level at 0.59 mmol/kg/day administered through diet for 7 days relative to time-matched control. The data set is classed as functional.
Data set [3] has as its system Mus musculus. The data set is described as follows: Antiobesity activity in lean normal BALB/c mouse assessed as change in average daily weight at 0.59 mmol/kg/day administered through diet for 7 days relative to time-matched control. It is filed as functional.
For data set [4], the system named is Mus musculus. Description: Toxicity in lean normal BALB/c mouse assessed as overt signs of behavioural changes at equimolar dose of 0.5 mmol/kg galegine administered daily through diet for 7 days. The data set is classed as organism-based. The conditions noted are these: in vivo, po, 168 h.
Data set [5] has as its system Mus musculus. The data set is described as follows: Antiobesity activity in ob/ob mouse model assessed as change in average daily weight at 0.24 mmol/kg/day administered through diet for 28 days relative to time-matched control. It is filed as functional.
Data set [6] relates to Mus musculus. Description: Antiobesity activity in ob/ob mouse model assessed as change in average daily food intake at 0.24 mmol/kg/day administered through diet for 28 days relative to time-matched control. It is filed as functional.
The subject of data set [7] is Mus musculus. Description: Hypoglycemic activity in ob/ob mouse model assessed as blood glucose level at 0.24 mmol/kg/day administered through diet for 28 days relative to time-matched control. The data set is classed as functional.
The test system of data set [8] is Mus musculus. The data set is described as follows: Antiobesity activity in high fat diet-induced obese BALB/c mouse model assessed as change in average daily body weight at 0.42 mmol/kg/day administered through diet for 28 days relative to time-matched control. The data set is classed as functional.
Data set [9] concerns Mus musculus. The data set is described as follows: Antiobesity activity in high fat diet-induced obese BALB/c mouse model assessed as change in average daily food intake at 0.42 mmol/kg/day administered through diet for 28 days relative to time-matched control. The data set is classed as functional.
Data set [10] has as its system Mus musculus. The data set is described as follows: Hypoglycemic activity in high fat diet-induced obese BALB/c mouse model assessed as blood glucose level at 0.42 mmol/kg/day administered through diet for 28 days relative to time-matched control. The data set is classed as functional.
In data set [11] the test system is Mus musculus. The data set is described as follows: Hypoglycemic activity in lean normal BALB/c mouse assessed as blood glucose level at 0.54 mmol/kg/day administered through diet for 7 days relative to time-matched control. It is filed as functional.
For data set [12], the system named is Mus musculus. Description: Antiobesity activity in lean normal BALB/c mouse assessed as change in average daily food intake at 0.54 mmol/kg/day administered through diet for 7 days relative to time-matched control. The data set is classed as functional.
Data set [13] has as its system Mus musculus. Description: Antiobesity activity in lean normal BALB/c mouse assessed as change in average daily weight at 0.54 mmol/kg/day administered through diet for 7 days relative to time-matched control. The data set is classed as functional.
Data set [14] relates to Mus musculus. The data set is described as follows: Antiobesity activity in ob/ob mouse model assessed as change in average daily weight at 0.26 mmol/kg/day administered through diet for 28 days relative to time-matched control. It is filed as functional.
Data set [15] concerns Mus musculus. The data set is described as follows: Antiobesity activity in ob/ob mouse model assessed as change in average daily food intake at 0.26 mmol/kg/day administered through diet for 28 days relative to time-matched control. It is filed as functional.
Data set [16] can be described thus: Metabolic stability in ob/ob mouse liver microsomes assessed as oxidative hydroxylation at 50 uM after 45 mins by HPLC-MS analysis. The data set is classed as ADME, Microsome. Particulars: 0.75 h.
The test system of data set [17] is Mus musculus. The data set is described as follows: Hypoglycemic activity in ob/ob mouse model assessed as blood glucose level at 0.26 mmol/kg/day administered through diet for 28 days relative to time-matched control. It is filed as functional.
In data set [18] the test system is Mus musculus. The data set is described as follows: Antiobesity activity in high fat diet-induced obese BALB/c mouse model assessed as change in average daily body weight at 0.43 mmol/kg/day administered through diet for 28 days relative to time-matched control. The data set is classed as functional.
Data set [19] relates to Mus musculus. Description: Antiobesity activity in high fat diet-induced obese BALB/c mouse model assessed as change in average daily food intake at 0.43 mmol/kg/day administered through diet for 28 days relative to time-matched control. It is filed as functional.
Data set [20] relates to Mus musculus. The data set is described as follows: Hypoglycemic activity in high fat diet-induced obese BALB/c mouse model assessed as blood glucose level at 0.43 mmol/kg/day administered through diet for 28 days relative to time-matched control. The data set is classed as functional.
Data set [21] deals with Mus musculus. The data set is described as follows: Antiobesity activity in lean normal BALB/c mouse assessed as change in average daily food intake at 0.40 mmol/kg/day administered through diet for 7 days relative to time-matched control. It is filed as functional.
The test system of data set [22] is Mus musculus. Description: Hypoglycemic activity in lean normal BALB/c mouse assessed as blood glucose level at 0.40 mmol/kg/day administered through diet for 7 days relative to time-matched control. It is filed as functional.
The test system of data set [23] is Mus musculus. Description: Antiobesity activity in lean normal BALB/c mouse assessed as change in average daily weight at 0.40 mmol/kg/day administered through diet for 7 days relative to time-matched control. It is filed as functional.
The test system of data set [24] is Mus musculus. Description: Hypoglycemic activity in lean normal BALB/c mouse assessed as blood glucose level at 0.62 mmol/kg/day administered through diet for 7 days relative to time-matched control. The data set is classed as functional.
Data set [25] relates to Mus musculus. The data set is described as follows: Antiobesity activity in lean normal BALB/c mouse assessed as change in average daily food intake at 0.62 mmol/kg/day administered through diet for 7 days relative to time-matched control. It is filed as functional.
Data set [26] has as its system Mus musculus. Description: Antiobesity activity in lean normal BALB/c mouse assessed as change in average daily weight at 0.62 mmol/kg/day administered through diet for 7 days relative to time-matched control. The data set is classed as functional.
Data set [27] concerns Mus musculus. Description: Antiobesity activity in ob/ob mouse model assessed as change in average daily weight at 0.27 mmol/kg/day administered through diet for 28 days relative to time-matched control. The data set is classed as functional.
The test system of data set [28] is Mus musculus. The data set is described as follows: Antiobesity activity in ob/ob mouse model assessed as change in average daily food intake at 0.27 mmol/kg/day administered through diet for 28 days relative to time-matched control. It is filed as functional.
Data set [29] deals with Mus musculus. The data set is described as follows: Hypoglycemic activity in ob/ob mouse model assessed as blood glucose level at 0.27 mmol/kg/day administered through diet for 28 days relative to time-matched control. The data set is classed as functional.
Data set [30] concerns Mus musculus. The data set is described as follows: Antiobesity activity in high fat diet-induced obese BALB/c mouse model assessed as change in average daily body weight at 0.45 mmol/kg/day administered through diet for 28 days relative to time-matched control. The data set is classed as functional.
For data set [31], the system named is Mus musculus. Description: Antiobesity activity in high fat diet-induced obese BALB/c mouse model assessed as change in average daily food intake at 0.45 mmol/kg/day administered through diet for 28 days relative to time-matched control. It is filed as functional.
The subject of data set [32] is Mus musculus. Description: Hypoglycemic activity in high fat diet-induced obese BALB/c mouse model assessed as blood glucose level at 0.45 mmol/kg/day administered through diet for 28 days relative to time-matched control. It is filed as functional.
Data set [33] deals with Mus musculus. Description: Hypoglycemic activity in lean normal BALB/c mouse assessed as blood glucose level at 0.5 mmol/kg/day administered through diet for 7 days relative to time-matched control. The data set is classed as functional.
For data set [34], the system named is Mus musculus. Description: Antiobesity activity in lean normal BALB/c mouse assessed as change in average daily food intake at 0.5 mmol/kg/day administered through diet for 7 days relative to time-matched control. The data set is classed as functional.
The test system of data set [35] is Mus musculus. The data set is described as follows: Antiobesity activity in lean normal BALB/c mouse assessed as change in average daily weight at 0.5 mmol/kg/day administered through diet for 7 days relative to time-matched control. It is filed as functional.
The test system of data set [36] is Mus musculus. The data set is described as follows: Antiobesity activity in high fat diet-induced obese BALB/c mouse model assessed as change in average daily body weight at 0.38 mmol/kg/day administered through diet for 28 days relative to time-matched control. The data set is classed as functional.
Data set [37] deals with Mus musculus. Description: Antiobesity activity in high fat diet-induced obese BALB/c mouse model assessed as change in average daily food intake at 0.38 mmol/kg/day administered through diet for 28 days relative to time-matched control. The data set is classed as functional.
Data set [38] relates to Mus musculus. Description: Hypoglycemic activity in high fat diet-induced obese BALB/c mouse model assessed as blood glucose level at 0.38 mmol/kg/day administered through diet for 28 days relative to time-matched control. The data set is classed as functional.

Take `N=C(N)NCc1ccc(Cl)cc1`: the Activity in the data set on Mus musculus [1] is reported as -34.7%; in the data set with Mus musculus [2] it was 59%; in the data set with Mus musculus [3], -19.7%; in the data set on Mus musculus [4], “Non-toxic”; in the data set on Mus musculus [5] it was -11%; in the data set on Mus musculus [6] it was -38.5%. Moreover, the Activity is on record as 71% in the data set with Mus musculus [7], -7.3% in the data set with Mus musculus [8], -15.6% in the data set on Mus musculus [9] and 94% in the data set on Mus musculus [10].

On to `N=C(N)NCc1ccccc1`, for which the Activity in the data set with Mus musculus [11] was 60%; with Mus musculus [12] it was -28.1%; in the data set with Mus musculus [13], -10.4%; in the data set on Mus musculus [4] it was “Non-toxic”; with Mus musculus [14], -6.8%; with Mus musculus [15], -29.3%. Further, the Activity result in data set [16] is given as “Stable”; in the data set on Mus musculus [17], 82%; with Mus musculus [18] it was -10.6%; with Mus musculus [19], -14.9%; in the data set on Mus musculus [20] it was 90%.

Take `N=C(N)NCc1ccc(Cl)c(Cl)c1`: the Activity in the data set with Mus musculus [21] was -38.3%; in the data set with Mus musculus [22] it was 67%; in the data set on Mus musculus [23], -9.9%; in the data set on Mus musculus [4], “Non-toxic”.

In the case of `N=C(N)NCc1ccc(F)cc1`, the Activity with Mus musculus [24] is recorded as 56%; in the data set with Mus musculus [25] it was -27.8%; with Mus musculus [26], -14.7%; with Mus musculus [4], “Non-toxic”; in the data set on Mus musculus [27] it was -8.7%; in the data set on Mus musculus [28] it was -26.8%. For the same compound, the Activity is 102% in the data set on Mus musculus [29], -7.8% in the data set on Mus musculus [30], -9.8% with Mus musculus [31] and 93% in the data set on Mus musculus [32].

Consider `CC(C)=CCN=C(N)N` [GALEGINE], for which the Activity is listed as 53% with Mus musculus [33]; -36.3% with Mus musculus [34]; -16.6% in the data set on Mus musculus [35]; “Non-toxic” in the data set with Mus musculus [4]; -7.3% with Mus musculus [14]; -29.2% in the data set with Mus musculus [15]. The Activity in the data set with Mus musculus [17] is on record as 91%; in the data set on Mus musculus [36], -9%; in the data set on Mus musculus [37], -23.6%; in the data set on Mus musculus [38] it was 77%.
